Data from patent publication US9725442B2, “Heterocyclic derivative having PGD2 receptor antagonist activity” (Shionogi & Co., Ltd., priority 2011, dated 2017).
pIC50, pKi: −log10 of the molar value. Like-named read-outs stand apart in the source and are kept apart here.

Key:
[1] = target: Human DP1 receptor (Homo sapiens (Human), UniProt Q13258); assay: Human DP1 inhibitory activity in DP1-expressing cell (PGD2-induced cAMP); assay type: cell-based; conditions: category of cAMP IC50, human DP1 receptor expressing Jurkut cell
Description: Compounds were categorized as AA (cAMP is less than 100 nM) and A (cAMP is more than 100 nM and less than 5000 nM) as shown in Table 99 and 100.

[2] = target: CRTH2 (Homo sapiens (Human), UniProt Q9Y5Y4); assay: CRTH2 receptor binding inhibitory activity ([3H]-PGD2 displacement, membranes of CRTH2-expressing K562 cell)
Description: Cell membrane was prepared from CRTH2-expressing K562 cell. The cell membrane (20 μg/well) was mixed with reaction buffer (50 mM Tris/HCl, pH 7.4, 10 mM MgCl2). Then, [^3H]-PGD2 was added to the mixture and incubated for 60 min at room temperature. […] Then, the mixture was filtrated with glass paper immediately. The filter paper was washed several times and radio activity on the filter was measured. Specific binding was defined as difference between total and non-specific binding (radio activity with 10 μM PGD2). Ki values for each compound were calculated from displacement curve.

[3] = CRTH2 receptor binding, [3H]-PGD2 displacement, membrane of CRTH2-expressing K562 cell, categorized AAAA/AAA, read-out: Ki
[4] = [3H]-PGD2 displacement, membrane of CRTH2-expressing K562 cell, read-out: Ki

Chain of CRTH2 (Q9Y5Y4 whole entry): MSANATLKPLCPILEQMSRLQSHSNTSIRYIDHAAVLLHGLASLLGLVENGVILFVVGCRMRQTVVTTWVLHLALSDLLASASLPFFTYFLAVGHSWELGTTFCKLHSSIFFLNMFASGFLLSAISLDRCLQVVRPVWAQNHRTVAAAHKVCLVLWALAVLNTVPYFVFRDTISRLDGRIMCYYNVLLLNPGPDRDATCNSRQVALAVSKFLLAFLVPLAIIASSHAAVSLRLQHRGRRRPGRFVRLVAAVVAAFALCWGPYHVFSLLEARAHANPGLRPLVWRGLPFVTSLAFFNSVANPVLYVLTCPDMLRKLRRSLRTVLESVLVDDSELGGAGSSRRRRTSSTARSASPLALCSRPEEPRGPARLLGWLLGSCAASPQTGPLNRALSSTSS
Chain of Human DP1 receptor (Q13258 whole entry): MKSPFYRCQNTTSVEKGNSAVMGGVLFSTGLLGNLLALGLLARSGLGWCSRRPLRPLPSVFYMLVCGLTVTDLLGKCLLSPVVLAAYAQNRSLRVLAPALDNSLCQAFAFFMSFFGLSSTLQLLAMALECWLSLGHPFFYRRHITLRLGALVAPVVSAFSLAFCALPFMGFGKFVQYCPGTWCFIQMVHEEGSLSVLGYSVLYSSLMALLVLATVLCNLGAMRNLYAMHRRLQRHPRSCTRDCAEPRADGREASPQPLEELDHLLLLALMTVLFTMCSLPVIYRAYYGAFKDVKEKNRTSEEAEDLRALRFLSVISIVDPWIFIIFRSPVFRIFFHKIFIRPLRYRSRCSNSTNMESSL

Row | pIC50 [1] | pKi [2, 3] | pKi [2, 4] | Structure (SMILES) | pKi [2]
1 | > 7.00 | 5.30 to 7.00 |  | CC(C)Oc1ccc(S(=O)(=O)N2[C@H](C)C[C@H](n3nc(CC(=O)O)c4ccc(F)cc43)C[C@@H]2C)cc1 [Compound I-73] | 
2 | > 7.00 | 5.30 to 7.00 |  | CC(C)Oc1ccc(S(=O)(=O)N2CC[C@H](n3nc(CC(=O)O)c4ccc(F)cc43)C[C@@H]2C)cc1 [Compound I-76] | 
3 | 5.30 to 7.00 | > 7.00 | 7.32 | C[C@H]1C[C@@H](n2nc(CC(=O)O)c3ccc(F)cc32)CCN1S(=O)(=O)c1ccc(F)cc1 [Compound I-77] | 
4 | 5.30 to 7.00 | 5.30 to 7.00 |  | CC(C)Oc1ccc(S(=O)(=O)N2CC[C@H](n3nc(CC(=O)O)c4ccc(F)cc43)C[C@H]2C)cc1 [Compound I-78] | 
5 | 5.30 to 7.00 | 5.30 to 7.00 |  | C[C@@H]1C[C@@H](n2nc(CC(=O)O)c3ccc(F)cc32)CCN1S(=O)(=O)c1ccc(F)cc1 [Compound I-79] | 
6 | 5.30 to 7.00 | > 7.00 |  | CC(C)Oc1ccc(S(=O)(=O)N2C[C@H](n3nc(CC(=O)O)c4ccc(F)cc43)[C@@](C)(O)C2)cc1 [Compound I-84] | 
7 | 5.30 to 7.00 | > 7.00 |  | CC(C)Oc1ccc(S(=O)(=O)N2C[C@H](n3nc(CC(=O)O)c4ccccc43)[C@@](C)(O)C2)cc1 [Compound I-86] | 
8 | 5.30 to 7.00 | > 7.00 |  | Cc1ccc2c(CC(=O)O)nn([C@H]3CN(S(=O)(=O)c4ccc(OC(C)C)cc4)C[C@]3(C)O)c2c1 [Compound I-87] | 
9 | > 7.00 | > 7.00 |  | CC(C)Oc1ccc(S(=O)(=O)N2C[C@H](n3nc(CC(=O)O)c4ccccc43)[C@](C)(F)C2)cc1 [Compound I-88] | 
10 | > 7.00 | 5.30 to 7.00 |  | CC(C)Oc1ccc(S(=O)(=O)N2C[C@H](n3nc(CC(=O)O)c4ccccc43)C[C@@H]2C(F)F)cc1 [Compound I-90] | 
11 | > 7.00 | > 7.00 |  | CC(C)Oc1ccc(S(=O)(=O)N2C[C@H](n3nc(CC(=O)O)c4ccccc43)C[C@@H]2C)cc1 [Compound I-91] | 
12 | > 7.00 | 5.30 to 7.00 |  | Cc1ccc2c(CC(=O)O)nn([C@@H]3C[C@H](C(F)F)N(S(=O)(=O)c4ccc(OC(C)C)cc4)C3)c2c1 [Compound I-92] | 
13 | > 7.00 | 5.30 to 7.00 |  | CC(C)Oc1ccc(S(=O)(=O)N2C[C@H](n3nc(CC(=O)O)c4ccc(Cl)cc43)C[C@@H]2C(F)F)cc1 [Compound I-93] | 
14 | > 7.00 | > 7.00 |  | Cc1ccc2c(CC(=O)O)nn([C@@H]3C[C@H](C)N(S(=O)(=O)c4ccc(OC(C)C)cc4)C3)c2c1 [Compound I-94] | 
15 | > 7.00 | > 7.00 |  | CC(C)Oc1ccc(S(=O)(=O)N2C[C@H](n3nc(CC(=O)O)c4ccc(Cl)cc43)C[C@@H]2C)cc1 [Compound I-95] | 
16 | > 7.00 | > 7.00 |  | C[C@@H]1CN(S(=O)(=O)c2ccc(OC(F)F)cc2)C[C@@H]1n1nc(CC(=O)O)c2ccccc21 [Compound I-98] | 
17 | > 7.00 | > 7.00 |  | CC(C)Oc1ccc(S(=O)(=O)N2C[C@@H](C)[C@@H](n3nc(CC(=O)O)c4ccccc43)C2)cn1 [Compound I-99] | 
18 | 5.30 to 7.00 | > 7.00 |  | CC(C)Oc1ccc(S(=O)(=O)N2C[C@@H](C)[C@@H](n3nc(/C=C/C(=O)O)c4ccc(F)cc43)C2)cc1 [Compound I-100] | 
19 | 5.30 to 7.00 | 5.30 to 7.00 |  | CC(C)Oc1ccc(S(=O)(=O)N2C[C@@H](C)[C@@H](n3nc(CCC(=O)O)c4ccc(F)cc43)C2)cc1 [Compound I-101] | 
20 | > 7.00 | > 7.00 |  | C=C[C@H]1C[C@@H](n2nc(CC(=O)O)c3ccc(F)cc32)CN1S(=O)(=O)c1ccc(OC(C)C)cc1 [Compound I-102] | 
21 | > 7.00 | > 7.00 |  | CC[C@H]1C[C@@H](n2nc(CC(=O)O)c3ccc(F)cc32)CN1S(=O)(=O)c1ccc(OC(C)C)cc1 [Compound I-103] | 
22 | > 7.00 | > 7.00 | 7.80 | CC(C)Oc1ccc(S(=O)(=O)N2C[C@H](n3nc(CC(=O)O)c4ccc(F)cc43)C[C@]2(C)C#N)cc1 [Compound I-104] | 
23 | > 7.00 | > 7.00 |  | CC(C)Oc1ccc(S(=O)(=O)N2C[C@H](n3nc(CC(=O)O)c4ccc(F)cc43)C[C@@]2(C)C#N)cc1 [Compound I-105] | 
24 | > 7.00 | > 7.00 |  | CCOc1ccc(S(=O)(=O)N2C[C@@H](C)[C@@H](n3nc(CC(=O)O)c4ccc(F)cc43)C2)cc1 [Compound I-106] | 

Row | pIC50 [1] | pKi [2, 3] | pKi [2, 4] | Structure (SMILES) | pKi [2]
25 | > 7.00 | > 7.00 |  | C[C@@H]1CN(S(=O)(=O)c2ccc(OC(F)F)cc2)C[C@@H]1n1nc(CC(=O)O)c2ccc(F)cc21 [Compound I-107] | 
26 | > 7.00 | > 7.00 |  | CCOc1ccc(S(=O)(=O)N2C[C@@H](C)[C@@H](n3nc(CC(=O)O)c4ccc(F)cc43)C2)cn1 [Compound I-108] | 
27 | > 7.00 | > 7.00 |  | CCOc1ccc(S(=O)(=O)N2C[C@@H](C)[C@@H](n3nc(CC(=O)O)c4ccc(C)cc43)C2)cc1 [Compound I-109] | 
28 | > 7.00 | > 7.00 |  | Cc1ccc2c(CC(=O)O)nn([C@H]3CN(S(=O)(=O)c4ccc(OC(F)F)cc4)C[C@H]3C)c2c1 [Compound I-110] | 
29 | > 7.00 | > 7.00 |  | CCOc1ccc(S(=O)(=O)N2C[C@@H](C)[C@@H](n3nc(CC(=O)O)c4ccc(C)cc43)C2)cn1 [Compound I-111] | 
30 | > 7.00 | > 7.00 |  | COc1ccc(S(=O)(=O)N2C[C@@H](C)[C@@H](n3nc(CC(=O)O)c4ccc(F)cc43)C2)cc1 [Compound I-112] | 
31 | > 7.00 | > 7.00 | 7.77 | C[C@@H]1CN(S(=O)(=O)c2ccc(C3CC3)cc2)C[C@@H]1n1nc(CC(=O)O)c2ccc(F)cc21 [Compound I-113] | 
32 | > 7.00 | > 7.00 |  | Cc1ccc2c(CC(=O)O)nn([C@H]3CN(S(=O)(=O)c4ccc(OC(C)C)cc4)C[C@@H]3C)c2c1 [Compound I-114] | 
33 | > 7.00 | > 7.00 |  | CC(C)Oc1ccc(S(=O)(=O)N2C[C@H](C)[C@@H](n3nc(CC(=O)O)c4ccccc43)C2)cc1 [Compound I-115] | 
34 | 5.30 to 7.00 | > 7.00 |  | COc1ccc(S(=O)(=O)N2C[C@@H](C)[C@@H](n3nc(CC(=O)O)c4ccc(F)cc43)C2)cn1 [Compound I-116] | 
35 | 5.30 to 7.00 | > 7.00 | 8.80 | Cc1ccc(S(=O)(=O)N2C[C@@H](C)[C@@H](n3nc(CC(=O)O)c4ccc(F)cc43)C2)cc1 [Compound I-117] | 
36 | > 7.00 | > 7.00 |  | CCc1ccc(S(=O)(=O)N2C[C@@H](C)[C@@H](n3nc(CC(=O)O)c4ccc(F)cc43)C2)cc1 [Compound I-118] | 
37 | 5.30 to 7.00 | > 7.00 |  | C[C@@H]1CN(S(=O)(=O)c2ccc(C(F)(F)F)cc2)C[C@@H]1n1nc(CC(=O)O)c2ccc(F)cc21 [Compound I-119] | 
38 | > 7.00 | > 7.00 |  | C[C@@H]1CN(S(=O)(=O)c2ccc(OC(F)(F)F)cc2)C[C@@H]1n1nc(CC(=O)O)c2ccc(F)cc21 [Compound I-120] | 
39 | 5.30 to 7.00 | > 7.00 |  | C[C@@H]1CN(S(=O)(=O)c2ccccc2Cl)C[C@@H]1n1nc(CC(=O)O)c2ccc(F)cc21 [Compound I-121] | 
40 | 5.30 to 7.00 | > 7.00 | 8.60 | C[C@@H]1CN(S(=O)(=O)c2cccc(Cl)c2)C[C@@H]1n1nc(CC(=O)O)c2ccc(F)cc21 [Compound I-122] | 
41 | 5.30 to 7.00 | > 7.00 |  | C[C@@H]1CN(S(=O)(=O)c2ccccc2C#N)C[C@@H]1n1nc(CC(=O)O)c2ccc(F)cc21 [Compound I-124] | 
42 | 5.30 to 7.00 | > 7.00 |  | CCOc1cc(F)c(S(=O)(=O)N2C[C@@H](C)[C@@H](n3nc(CC(=O)O)c4ccc(F)cc43)C2)c(F)c1 [Compound I-125] | 
43 | > 7.00 | > 7.00 |  | CCc1ccc(S(=O)(=O)N2C[C@@H](C)[C@@H](n3nc(CC(=O)O)c4ccc(C(F)(F)F)cc43)C2)cc1 [Compound I-126] | 
44 | > 7.00 | > 7.00 |  | C[C@@H]1CN(S(=O)(=O)c2ccc(OC(F)F)cc2)C[C@@H]1n1nc(CC(=O)O)c2ccc(C(F)(F)F)cc21 [Compound I-127] | 
45 | > 7.00 | > 7.00 |  | COc1ccc(S(=O)(=O)N2C[C@@H](C)[C@@H](n3nc(CC(=O)O)c4ccc(C(F)(F)F)cc43)C2)cc1 [Compound I-128] | 
46 | > 7.00 | > 7.00 |  | CCOc1ccc(S(=O)(=O)N2C[C@@H](C)[C@@H](n3nc(CC(=O)O)c4ccc(C(F)(F)F)cc43)C2)cc1 [Compound I-129] | 
47 | > 7.00 | > 7.00 |  | CCOc1ccc(S(=O)(=O)N2C[C@@H](C)[C@@H](n3nc(CC(=O)O)c4ccc(C(F)(F)F)cc43)C2)cn1 [Compound I-132] | 
48 | 5.30 to 7.00 | 5.30 to 7.00 |  | CC(C)Oc1ccc(S(=O)(=O)N2C[C@H](n3nc(CC(=O)O)c4cccc(F)c43)C[C@@H]2C(F)F)cc1 [Compound I-133] | 

Row | Structure (SMILES) | pIC50 [1] | pKi [2, 3] | pKi [2, 4] | pKi [2]
49 | O=C(O)Cc1nn([C@@H]2C[C@H]3CC[C@@H](C2)N3S(=O)(=O)c2ccc(F)cc2)c2cc(F)ccc12 [Compound I-80] | 5.30 to 7.00 |  |  | 5.30 to 7.00
50 | CC(C)Oc1ccc(S(=O)(=O)N2[C@@H]3CC[C@H]2C[C@H](n2nc(CC(=O)O)c4ccc(F)cc42)C3)cc1 [Compound I-81] | 5.30 to 7.00 |  |  | 5.30 to 7.00
51 | O=C(O)Cc1nn([C@H]2C[C@H]3CC[C@@H](C2)N3S(=O)(=O)c2ccc(F)cc2)c2cc(F)ccc12 [Compound I-82] | 5.30 to 7.00 |  |  | 5.30 to 7.00
52 | CC(C)Oc1ccc(S(=O)(=O)N2[C@@H]3CC[C@H]2C[C@@H](n2nc(CC(=O)O)c4ccc(F)cc42)C3)cc1 [Compound I-83] | > 7.00 |  |  | 5.30 to 7.00
